{"source": "patent US20130344065A1", "about": "“Combination Treatment with VEGF-C Antagonists” (Vegenics Pty Ltd, priority 2010, published 2013)", "key": {"[1]": {"test_system": "VEGF-C stimulated HUVEC proliferation", "assay": "HUVEC proliferation assay", "assay_type": "cell-based", "details": "48 hrs, WST-1", "method": "HUVEC proliferation assays were conducted for 48 hrs and cell number measured with WST-1 reagent (Roche)."}, "[2]": {"test_system": "KP4 human pancreatic tumors", "assay": "KP4 pancreatic xenograft (Example 8)", "details": "for % T/C: after 30 days", "protocol": "VGX-100 was administered at 20 or 40 mg/kg for single therapy and at 40/mg/kg for combination therapy.\nTo initiate the study, 5×10^6 of KP4 cells suspended in 100 μl of a mixture of medium/Matrigel (1:1) were subcutaneously implanted to the nude mice in the right flank region. Cancer cells were implanted into 90 mice. Animals were monitored for tumor growth daily after cell implantation. When tumor volumes reached 80-100 mm^3, mice were randomized into 5 groups of 10 mice each using only mice having tumor volumes closest to the mean value. Mice with tumor volumes too big or too small were excluded from the study. Tumor volumes were measured using the formula V=L×W×H×π/6, where L and W represented the longer and shorter diameters of the tumor and H represented the height of the tumor. The treatment with drugs was initiated on the day after randomization. […] All treatments were administered intraperitoneally twice weekly for 30 days.\nThroughout the entire study, tumor volumes were measured twice weekly and body weights once weekly. […] Unscheduled sacrifices were performed if tumor volumes reached>2,000 mm^3, animals lost>25% of their original body weights, tumor ulceration appeared, or mice became moribund. At the end of the experiment, tumors were removed, embedded in Optimal Cutting Temperature (OCT), and stored at −80° C. for IHC analysis. Gross examination was conducted on liver, lung, spleen, kidneys, testes, and prostate. If no abnormal observation was detected on these organs, the tissues were discarded.\nTumor size was measured 2-3 times weekly with calipers. Size of tumors relative to controls is calculated after 30 days of treatment."}, "[3]": {"test_system": "PC-3 human prostate carcinoma xenografts", "assay": "PC-3 xenograft combination therapy (Example 3, first study);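 further: subcutaneous PC-3 tumors in male athymic NCr nude mice aged 6-7 weeks, combination agents dosed within 30 min of each other, animals euthanized once tumors exceeded 2 g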", "protocol": "Docetaxel was administered intravenously at 10 mg/kg weekly for three injections.\nHIgG1 Isotype control-humanised antibody (6.4-12.36 mg/ml) and VGX-100 (5.53 and 5.75 mg/ml) were provided as frozen colorless stock solutions in Dulbecco's phosphate buffered saline (DPBS) and stored from light at −80° C. The stock solutions were thawed and stored at 4° C. when treatment began. The dosing solutions (40 mg/kg in 0.2 ml/20 g body weight) were prepared by diluting the stock solution with DPBS. The resulting formulations were clear with pH values ranging from 7.02-7.21. The dosing vials were kept on wet ice during dosing, gently pipetted and not aspirated through a needle except during administration. Dosing solutions were prepared weekly in DPBS and stored protected from light at 4° C. while not in use.\nDocetaxel (lot no. D9A095) was manufactured by Sanofi-Aventis and obtained from McKesson as a pale yellow solution in 50% EtOH/50% Tween80. It was stored protected from light at 4° C. Docetaxel was diluted as directed on the package insert with the provided diluent (sterile water) to produce a clear and colorless 10 mg/ml stock solution. On each treatment day, a fresh 10 mg/ml stock was prepared and further diluted with water to achieve the appropriate concentration. The resulting solution was clear and colorless with a pH of 7.16.\nAll test articles were administered within two hours of preparation. For groups receiving combination therapy, the drugs were administered in the order presented in Table 1 and within 30 minutes of one another.\nMale NCR(NCRNU-M) athymic mice were obtained from Taconic. They were 6-7 weeks old on Day 1 of the experiment. The mice were fed irradiated Rodent Diet 5053 (LabDiet™) and water ad libitum. The mice were housed in static cages with Bed-O'Cobs™ bedding inside Biobubble® Clean Rooms that provide H.E.P.A filtered air into the bubble environment at 100 complete air changes per hour. All treatments, body weight determinations, and tumor measurements were carried out in the bubble environment. The environment was controlled to a temperature range of 21.1±1.1° C. (70±2° F.) and a humidity range of 30-70%.\nTest mice were implanted subcutaneously on Day 0. […] Mice with tumors in excess of 2 g or with ulcerated tumors were euthanized, as were those found in obvious distress or in a moribund condition.\nPC-3 cells were obtained from ATCC and expanded using Ham's F-12 media supplemented with 10% fetal bovine serum and 1% penicillin-streptomycin-glutamine in 5% CO2 atmosphere at 37° C. When expansion was complete, the cells were collected using Trypsin (Cell Gro®), the trypsin neutralized, and the cells pooled for implantation. The PC-3 (Passage 10) cell suspension was counted using trypan blue exclusion with a hemacytometer. The cell suspension was reduced to a pellet using an Eppendorf 5810R centrifuge at 1500 rpm (300×g) for 5 minutes at 4° C. A 2.5×10^7 cells/ml suspension was prepared in 50% serum free media and 50% Matrigel®. Pre-injection viability was 97.7%. Test animals were implanted subcutaneously on Day 0 with 5×10^6 cells/animal (0.2 ml) using a 27-gauge needle and syringe. The cell suspension was maintained on wet ice to minimize the loss of viability and inverted frequently to maintain a uniform cell suspension during the inoculation procedure.\nTreatments began on Day 8, when the mean estimated tumor mass for all groups in the experiment was 129 mg (range of group means, 123-134 mg). All animals weighed≧19.2 g at the initiation of therapy. Mean group body weights at first treatment were matched (range of group means, 21.5-22.8 g). All animals were dosed according to individual body weight on the day of treatment (0.2 ml/20 g)."}, "[4]": {"details": "VGX-100 40 mg/kg and/or Avastin 10 mg/kg"}}, "note": "“And” between values parts separate entries of the source, which are not always exact repeats. Identical values can stand only once.", "data": [{"substance": "VGX-100: VEGF-C antibody; heavy chain SEQ ID NO: 3, light chain SEQ ID NO: 4", "values": [{"measurement": "Inhibition of VEGF-C stimulated HUVEC proliferation", "setting": "[1]", "result": "inhibited VEGF-C stimulated HUVEC proliferation"}, {"measurement": "Mean Tumor Vol. at D30 (mm3)", "setting": "[2]; VGX-100 20 mg/kg", "result": 1492.77, "unit": "mm3"}, {"measurement": "Mean Tumor Vol. at D30 (mm3)", "setting": "[2]; [4]", "result": 693.24, "unit": "mm3"}, {"measurement": "Mean Tumor Vol. at D30 (mm3)", "setting": "[2]; VGX-100 60 mg/kg", "result": 958.93, "unit": "mm3"}, {"measurement": "% T/C", "setting": "[2]; VGX-100 20 mg/kg", "result": 76.0, "unit": "%"}, {"measurement": "% T/C", "setting": "[2]; [4]", "result": 35.3, "unit": "%"}, {"measurement": "% T/C", "setting": "[2]; VGX-100 60 mg/kg", "result": 48.8, "unit": "%"}, {"measurement": "Time to evaluation size", "setting": "[3]; 750 mg, individual animals", "result": "39.5 days and 22.8 days and 19.9 days and 22.3 days and 33.5 days and 18.5 days and 31.1 days and 19.4 days and 22.0 days and 22.2 days"}, {"measurement": "Tumor Growth Delay", "setting": "[3]; T-C, evaluation size 750 mg, same doses", "result": 2.2, "unit": "days"}, {"measurement": "% T/C Day 22", "setting": "[3]; VGX-100 40 mg/kg IP, bevacizumab 10 mg/kg IP, docetaxel 10 mg/kg IV, median tumor mass vs control", "result": 87, "unit": "%"}, {"measurement": "% T/C: tumor burden in treatment group compared to control", "setting": "[3]; at day 160", "result": 97.9, "unit": "%"}, {"measurement": "% TFS (tumor free survivors)", "setting": "[3]; at termination, Day 160, same doses", "result": 0, "unit": "%"}, {"measurement": "Td", "setting": "[3]; group mean", "result": 8.3, "unit": "days"}, {"measurement": "Time to evaluation size", "setting": "[3]; group mean", "result": 25.1, "unit": "days"}, {"measurement": "Time to fold growth EP", "setting": "[3]; group mean", "result": 20.4, "unit": "days"}, {"measurement": "Td", "setting": "[3]; group median", "result": 6.2, "unit": "days"}, {"measurement": "Time to evaluation size", "setting": "[3]; group median", "result": 22.2, "unit": "days"}, {"measurement": "Time to fold growth EP", "setting": "[3]; group median", "result": 20.8, "unit": "days"}, {"measurement": "Time to fold growth EP", "setting": "[3]; individual animals", "result": "27.4 days and 20.9 days and 16.4 days and 21.5 days and 28.2 days and 13.9 days and 21.3 days and 15.8 days and 17.9 days and 20.7 days"}, {"measurement": "Complete regression", "setting": "[3]; individual animals, yes/no", "result": "no"}, {"measurement": "Partial regression", "setting": "[3]; individual animals, yes/no", "result": "no"}, {"measurement": "Tumor free survivor", "setting": "[3]; individual animals, yes/no", "result": "no"}, {"measurement": "Total CR", "setting": "[3]; number of animals of 10", "result": 0}, {"measurement": "Total PR", "setting": "[3]; number of animals of 10", "result": 0}, {"measurement": "Total TFS", "setting": "[3]; number of animals of 10", "result": 0}, {"measurement": "% CR (complete regression)", "setting": "[3]; same doses", "result": 0, "unit": "%"}, {"measurement": "% PR (partial regression)", "setting": "[3]; same doses", "result": 0, "unit": "%"}, {"measurement": "Anticancer activity of regimen", "setting": "[3]; same doses", "result": "ineffective"}, {"measurement": "Apparent Net Tumor Cell Kill (logs)", "setting": "[3]; same doses", "result": "−2.85", "unit": "logs"}, {"measurement": "Tumor regressions", "setting": "[3]; same doses", "result": "Nor tumor regressions were observed"}, {"measurement": "Td", "setting": "[3]; tumor doubling time, individual animals", "result": "16.6 days and 5.1 days and 6.0 days and 6.1 days and 14.1 days and 5.7 days and 12.3 days and 6.3 days and 7.1 days and 3.8 days"}]}]}
